IC50 data for 26 compounds are collected here from patent publication US20250376458A1, “COMPOUNDS AND METHODS FOR YAP/TEAD MODULATION AND INDICATIONS THEREFOR” (OPNA BIO SA, priority 2023, published 2025).

One may read the IC50 as the midpoint of a concentration-inhibition curve.

Molecules are shown by their SMILES.

The first assay concerns TEAD-dependent transcription. As to the kind of experiment: TEAD-dependent transcription cell-based luciferase reporter assay (MSTO-211H+12XGTIIC). Also on record: species or system human. As to conditions: Homo sapiens, MSTO-211H, 24 h, MSTO-211H+12XGTIIC cell line, 24 hours compound incubation, luminescence normalized to cell viability fluorescence signal; read-out: MSTO-211H GMean IC50 (uM) Cell Assay Reporter Cell Variant: TEAD. The source says: Determine Inhibitor Activity Against TEAD-Dependent Transcription in a Cell-Based Reporter Assay
The human mesothelioma cell line MSTO-211H was stably transfected with a pGL4.21 plasmid containing a synthetic promoter with 12 copies of the GTIIC TEAD response element that drives the expression of a luciferase reporter gene i using Lipofectamine transfection reagent (Thermo Fisher). Transfected cells were selected using puromycin and single cell clones expressing this construct (referred to as MSTO-211H+12XGTIIC) were generated by limiting dilution. MSTO-211H cells was characterized by genetic alterations in key components of the Hippo pathway^2, resulting in up-regulation of YAP/TEAD-mediated transcription. […] To evaluate TEAD inhibitors, the MSTO-211H+12XGTIIC cell line was seeded in a 96-well plate in 50 μL of culture media at 1×10^4 cells per well and incubated at 37° C. overnight. Serial dilutions of compounds (in total volume of 50 μL of culture media) were added to the cells and incubated at 37° C. for 24 hours. Each plate included cells treated with DMSO as high controls and cells treated with 20 μM of the reference compound K-975 (a known TEAD inhibitor)^3 as low controls. Cell viability was assayed by the addition of 25 μL of CellTiter-Fluor reagent (Promega) followed by a 30-minute incubation at 37° C. and quantification of the fluorescence signal (Ex400/Em505). Subsequently, luciferase expression was assayed by the addition of 25 μL of ONE-Glo reagent (Promega) followed by a 10-minute incubation at room temperature and quantification of the luminescence signal. The luminescence signal was normalized to the fluorescence signal to correct for any loss in cell viability over the 24-hour compound incubation period. The percentage of inhibition of normalized luminescence signal, indicative of compound-mediated inhibition of TEAD-dependent transcription, at individual compound concentrations relative to high and low controls was calculated. The data were analyzed by using nonlinear regression to generate IC50 values for individual compounds.
(Reporter assays use an easily measured gene product as a stand-in for the process of interest.)
`CS(=O)(=O)c1nc(C(=O)N2CCc3c(cccc3Nc3ccc(C(F)(F)F)cn3)C2)c[nH]1` [O-0003, (2-(methylsulfonyl)-1H-imidazol-4-yl)(5-((5-(trifluoromethyl)pyridin-2-yl)amino)-3,4-dihydroisoquinolin-2(1H)-yl)methanone]: the IC50 was 0.001 to 10 µM. Same read-out and setting: as for `CS(=O)(=O)c1nc(C(=O)N2CCc3c(cccc3Nc3ccc(C(F)(F)F)c(F)c3)C2)c[nH]1` [O-0004, (5-((3-fluoro-4-(trifluoromethyl)phenyl)amino)-3,4-dihydroisoquinolin-2(1H)-yl)(2-(methylsulfonyl)-1H-imidazol-4-yl)methanone], the figure is 0.001 to 10 µM.

On to `Cn1cc(C(=O)N2CCc3c(cccc3Nc3ccc(C(F)(F)F)cn3)C2)nc1S(C)(=O)=O` [O-0005, (1-methyl-2-(methylsulfonyl)-1H-imidazol-4-yl)(5-((5-(trifluoromethyl)pyridin-2-yl)amino)-3,4-dihydroisoquinolin-2(1H)-yl)methanone], for which the IC50 fell in the range of 0.001 to 10 µM. On the same count and under the same terms, as for `Cn1c(C(=O)N2CCc3c(cccc3Nc3ccc(C(F)(F)F)cn3)C2)cnc1S(C)(=O)=O` [O-0006, (1-methyl-2-(methylsulfonyl)-1H-imidazol-5-yl)(5-((5-(trifluoromethyl)pyridin-2-yl)amino)-3,4-dihydroisoquinolin-2(1H)-yl)methanone], the figure is 0.001 to 10 µM; as for `Cn1cc(C(=O)N2CCc3c(cccc3Nc3ccc(C(F)(F)F)cc3)C2)nc1S(C)(=O)=O` [O-0007, (1-methyl-2-(methylsulfonyl)-1H-imidazol-4-yl)(5-((4-(trifluoromethyl)phenyl)amino)-3,4-dihydroisoquinolin-2(1H)-yl)methanone], 0.001 to 10 µM; as for `Cn1c(C(=O)N2CCc3c(cccc3Nc3ccc(C(F)(F)F)cc3)C2)cnc1S(C)(=O)=O` [O-0008, (1-methyl-2-(methylsulfonyl)-1H-imidazol-5-yl)(5-((4-(trifluoromethyl)phenyl)amino)-3,4-dihydroisoquinolin-2(1H)-yl)methanone], 0.001 to 10 µM. For `CS(=O)(=O)c1nc(C(=O)N2CCc3c(cccc3Nc3ccc(C(F)(F)F)nc3)C2)c[nH]1` [O-0009, (2-(methylsulfonyl)-1H-imidazol-4-yl)(5-((6-(trifluoromethyl)pyridin-3-yl)amino)-3,4-dihydroisoquinolin-2(1H)-yl)methanone], the IC50 fell in the range of 10 to 100 µM. On to `CS(=O)(=O)c1nc(C(=O)N2CCc3c(cccc3Nc3ccc(C(F)(F)F)cc3F)C2)c[nH]1` [O-0010, (5-((2-fluoro-4-(trifluoromethyl)phenyl)amino)-3,4-dihydroisoquinolin-2(1H)-yl)(2-(methylsulfonyl)-1H-imidazol-4-yl)methanone], for which the IC50 lay within 0.001 to 10 µM. Consider `CCS(=O)(=O)c1nc(C(=O)N2CCc3c(cccc3Oc3ccc(C(F)(F)F)cc3)C2)c[nH]1` [O-0011, (2-(ethylsulfonyl)-1H-imidazol-4-yl)(5-(4-(trifluoromethyl)phenoxy)-3,4-dihydroisoquinolin-2(1H)-yl)methanone], for which the IC50 was 10 to 100 µM. Still for that read-out and setting: as for `CCS(=O)(=O)c1nc(C(=O)N2CCc3c(cccc3Nc3ccc(C(F)(F)F)cc3)C2)c[nH]1` [O-0012, (2-(ethylsulfonyl)-1H-imidazol-4-yl)(5-((4-(trifluoromethyl)phenyl)amino)-3,4-dihydroisoquinolin-2(1H)-yl)methanone], the figure is more than 100 µM. Same read-out and setting: as for `CS(=O)(=O)c1nc(C(=O)N2CCc3ccc(Nc4ccc(C(F)(F)F)cc4)cc3C2)c[nH]1` [O-0013, (2-(methylsulfonyl)-1H-imidazol-4-yl)(7-((4-(trifluoromethyl)phenyl)amino)-3,4-dihydroisoquinolin-2(1H)-yl)methanone], the figure is more than 100 µM; as for `CS(=O)(=O)c1nc(C(=O)N2CCc3ccc(Nc4ccc(C(F)(F)F)cn4)cc3C2)c[nH]1` [O-0015, (2-(methylsulfonyl)-1H-imidazol-4-yl)(7-((5-(trifluoromethyl)pyridin-2-yl)amino)-3,4-dihydroisoquinolin-2(1H)-yl)methanone], 10 to 100 µM. On the same count and under the same terms, for `CS(=O)(=O)c1nc(C(=O)N2CCc3ccc(Nc4ccc(C(F)(F)F)nc4)cc3C2)c[nH]1` [O-0016, (2-(methylsulfonyl)-1H-imidazol-4-yl)(7-((6-(trifluoromethyl)pyridin-3-yl)amino)-3,4-dihydroisoquinolin-2(1H)-yl)methanone] the value was 10 to 100 µM; for `CS(=O)(=O)c1nc(C(=O)N2CCc3ccc(Nc4ccc(C(F)(F)F)cc4F)cc3C2)c[nH]1` [O-0017, (7-((2-fluoro-4-(trifluoromethyl)phenyl)amino)-3,4-dihydroisoquinolin-2(1H)-yl)(2-(methylsulfonyl)-1H-imidazol-4-yl)methanone], 10 to 100 µM. As for `CCCS(=O)(=O)c1nc(C(=O)N2CCc3c(cccc3Oc3ccc(C(F)(F)F)cc3)C2)c[nH]1` [O-0019, (2-(propylsulfonyl)-1H-imidazol-4-yl)(5-(4-(trifluoromethyl)phenoxy)-3,4-dihydroisoquinolin-2(1H)-yl)methanone], the IC50 lay in the range of 0.001 to 10 µM. The same measure, in the same setting: as for `CCCS(=O)(=O)c1nc(C(=O)N2CCc3c(cccc3Nc3ccc(C(F)(F)F)cc3)C2)c[nH]1` [O-0020, (2-(propylsulfonyl)-1H-imidazol-4-yl)(5-((4-(trifluoromethyl)phenyl)amino)-3,4-dihydroisoquinolin-2(1H)-yl)methanone], the figure is 0.001 to 10 µM; as for `CC(C)S(=O)(=O)c1nc(C(=O)N2CCc3c(cccc3Oc3ccc(C(F)(F)F)cc3)C2)c[nH]1` [O-0021, (2-(isopropylsulfonyl)-1H-imidazol-4-yl)(5-(4-(trifluoromethyl)phenoxy)-3,4-dihydroisoquinolin-2(1H)-yl)methanone], 0.001 to 10 µM. Regarding `CC(C)S(=O)(=O)c1nc(C(=O)N2CCc3c(cccc3Nc3ccc(C(F)(F)F)cc3)C2)c[nH]1` [O-0022, (2-(isopropylsulfonyl)-1H-imidazol-4-yl)(5-((4-(trifluoromethyl)phenyl)amino)-3,4-dihydroisoquinolin-2(1H)-yl)methanone], the IC50 fell in the range of 0.001 to 10 µM. The same measure, in the same setting: as for `CCS(=O)(=O)c1nc(C(=O)N2CCc3c(cccc3Nc3ccc(C(F)(F)F)c(F)c3)C2)c[nH]1` [O-0025, (2-(ethylsulfonyl)-1H-imidazol-4-yl)(5-((3-fluoro-4-(trifluoromethyl)phenyl)amino)-3,4-dihydroisoquinolin-2(1H)-yl)methanone], the figure is more than 100 µM; as for `CCCS(=O)(=O)c1nc(C(=O)N2CCc3c(cccc3Nc3ccc(C(F)(F)F)c(F)c3)C2)c[nH]1` [O-0026, (5-((3-fluoro-4-(trifluoromethyl)phenyl)amino)-3,4-dihydroisoquinolin-2(1H)-yl)(2-(propylsulfonyl)-1H-imidazol-4-yl)methanone], 0.001 to 10 µM. The same measure, in the same setting: for `CC(C)S(=O)(=O)c1nc(C(=O)N2CCc3c(cccc3Nc3ccc(C(F)(F)F)c(F)c3)C2)c[nH]1` [O-0027, (5-((3-fluoro-4-(trifluoromethyl)phenyl)amino)-3,4-dihydroisoquinolin-2(1H)-yl)(2-(isopropylsulfonyl)-1H-imidazol-4-yl)methanone] the value was 0.001 to 10 µM; for `CS(=O)(=O)c1nc(C(=O)N2CCc3cc(Oc4ccc(C(F)(F)F)cc4)ccc3C2)c[nH]1` [O-0073, (2-(methylsulfonyl)-1H-imidazol-4-yl)(6-(4-(trifluoromethyl)phenoxy)-3,4-dihydroisoquinolin-2(1H)-yl)methanone], 10 to 100 µM.

With `CS(=O)(=O)c1nc(C(=O)N2CCc3cc(Oc4ccc(C(F)(F)F)cc4F)ccc3C2)c[nH]1` [O-0075, (6-(2-fluoro-4-(trifluoromethyl)phenoxy)-3,4-dihydroisoquinolin-2(1H)-yl)(2-(methylsulfonyl)-1H-imidazol-4-yl)methanone], the IC50 was in the range of 0.001 to 10 µM. Still for that read-out and setting: for `CS(=O)(=O)c1nc(C(=O)N2CCc3cc(Oc4ccc(C(F)(F)F)c(F)c4)cnc3C2)c[nH]1` [O-0077, (3-(3-fluoro-4-(trifluoromethyl)phenoxy)-5,8-dihydro-1,7-naphthyridin-7(6H)-yl)(2-(methylsulfonyl)-1H-imidazol-4-yl)methanone] the value was 0.001 to 10 µM; for `CCS(=O)(=O)c1nc(C(=O)N2CCc3cc(Oc4ccc(C(F)(F)F)cc4)ccc3C2)c[nH]1` [O-0079, (2-(ethylsulfonyl)-1H-imidazol-4-yl)(6-(4-(trifluoromethyl)phenoxy)-3,4-dihydroisoquinolin-2(1H)-yl)methanone], 0.001 to 10 µM.

The same assay, now with this note: MSTO-211H+12XGTIIC cell line, 24 hours compound incubation, luminescence normalized to cell viability fluorescence signal; read-out: MSTO-211H GMean IC50 (uM) Cell Assay Reporter Cell Variant: TEAD.
For `CS(=O)(=O)c1nc(C(=O)N2CCc3ccc(Nc4ccc(C(F)(F)F)c(F)c4)cc3C2)c[nH]1` [O-0018, (7-((3-fluoro-4-(trifluoromethyl)phenyl)amino)-3,4-dihydroisoquinolin-2(1H)-yl)(2-(methylsulfonyl)-1H-imidazol-4-yl)methanone], the IC50 lay within 10 to 100 µM.
